Results reported in patent US20100298325A1, “PYRIDINE DERIVATIVES FOR THE TREATMENT OF AMYLOID-RELATED DISEASES” (SENEXIS LIMITED, priority 2007, published 2010).
Like-named read-outs stand apart in the source and are kept apart here.

Assays:
[1] = target: T1, Aβ(1-42) (Homo sapiens, UniProt P05067); assay: Thioflavin-T fluorimetric assay of Aβ(1-42) aggregation; assay type: biochemical; details: 10 μM Aβ(1-42); thioflavin-T fluorescence; read-out: IC50 inhibiting 10 μM Aβ(1-42) aggregation
T1 construct: dissolving Aβ(1-42) HCl salt in hexafluoroisopropanol (HFIP)
T1 sequence (P05067 672-713 limits assumed): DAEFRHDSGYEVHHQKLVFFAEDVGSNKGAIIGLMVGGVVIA
Protocol: Aβ(1-42) was prepared for amyloid aggregation and toxicity assays by dissolving Aβ(1-42) HCl salt in hexafluoroisopropanol (HFIP), with brief sonication and vortexing. This solution of the Aβ(1-42) peptide in HFIP was stored at 4° C. @ 2 mM. When required, an aliquot of this stock solution was freeze-dried and dissolved in DMSO to 200 times the required final assay concentration (e.g. 2 mM for a final assay concentration of 10 μM). A 20 mM stock solution of each test compound was prepared in DMSO, and aliquots of these solutions were used to prepare further stock solutions of each test compound in DMSO, ranging in concentration from 3 μM up to 10 mM. These stock solutions were prepared for use as and when required and stored at −20° C. (maximum of 3 freeze-thaw cycles). The 20 mM parent stock solutions were stored frozen at −20° C. The daughter plate is sealed with silver seal and incubated at 37° C. for 24 and 48 hours for the Thioflavin T assay (LeVine and Scholten 1999). The activity of compounds in inhibiting 10 μM Aβ(1-42) aggregation was assessed by using a thioflavin-T fluorimetric assay. At each timepoint, a 50 or 100 μl aliquot is taken from each well of the daughter plate and dispensed into a black 96 well plate. Equal volume (50 or 100 μl) Thioflavin T [40 μM] (in Glycine buffer [50 mM]-NaOH pH 8.5) is added to each well. The plate was shaken and fluorescence was recorded using the top reader setting (10×1 msec), using excitation and emission filters of 440 (±15) and 485 (±10) nm, respectively. Fluorescence readings from equivalent experiments were averaged and % amyloid formation was determined as follows: Activity of Compounds in Inhibiting 10 μM Aβ(1-42) Aggregation Using Thioflavin-T Fluorimetric Assay

[2] = tested on: SH SY5Y cells; assay: Cell viability assay for amyloid toxicity using MTT reduction; assay type: cell-based; details: 10 μM Aβ(1-42), 24 h incubation, MTT reduction as measure of cell viability, read-out: IC50 protecting SH SY5Y cells from a toxic insult of 10 μM Aβ(1-42)
Protocol: Aβ(1-42) was prepared for amyloid aggregation and toxicity assays by dissolving Aβ(1-42) HCl salt in hexafluoroisopropanol (HFIP), with brief sonication and vortexing. This solution of the Aβ(1-42) peptide in HFIP was stored at 4° C. @ 2 mM. When required, an aliquot of this stock solution was freeze-dried and dissolved in DMSO to 200 times the required final assay concentration (e.g. 2 mM for a final assay concentration of 10 μM).
A 20 mM stock solution of each test compound was prepared in DMSO, and aliquots of these solutions were used to prepare further stock solutions of each test compound in DMSO, ranging in concentration from 3 μM up to 10 mM. These stock solutions were prepared for use as and when required and stored at −20° C. (maximum of 3 freeze-thaw cycles). The 20 mM parent stock solutions were stored frozen at −20° C.
The activity of compounds in protecting SH SY5Y cells from a toxic insult of 10 μM Aβ(1-42) was assessed by using inhibition of MIT reduction as a measure of cell viability. An aliquot (3 μl) of test compound [various concentrations] in DMSO is added to 294 μl of Opti-Mem (containing 2% FBS, 1% Pen/Strep, 1% L-Gln) {daughter plate}. The well is mixed thoroughly. Then an aliquot (3 μl) of Aβ(1-42) [2 mM] is added to the daughter plate wells and again mixed thoroughly. 50 μl is then aspirated and dispensed into wells containing 50 μl media+SH SY5Ycells (cells are also plated in Opti-Mem, at ˜30,000 cells/well/50 μl). Final concentrations of compound on cells range from [50 μM] to [˜15 nM] with a final concentration of Aβ(1-42) of [10 μM].
Cell plates are incubated for 24 h and then the MTT assay (Shearman, 1999). is performed. Briefly, 15 μl of MTT (3-(4,5-dimethylthiazol-2-yl)-2,5-diphenyl-tetrazolium bromide) dye (from Promega) added to each well and the plates incubated in 5% CO2 at 37° C. for 4 hours. 100 μl Stop/solubilsation solution (from Promega) was added to each well and the plates were left overnight in humidified box at room temperature. The plate was shaken and the absorbance was recorded at both 570 nm and 650 nm. ΔA values were calculated by subtracting absorbance at 650 nm from absorbance at 570 nm, to reduce non-specific background absorbance. ΔA values from equivalent experiments were averaged and % cell viability was determined as follows:
Live cell controls: 1% DMSO in Opti-Mem
Dead cell controls: 0.1% Triton X-100 added to cells
Activity of Compounds in Protecting SH SY5Y Cells from a Toxic Insult of 10 μM Aβ(1-42) Using Inhibition of MTT Reduction as a Measure of Cell Viability

SMILES: Oc1cccc(Nc2ccc(Oc3ccc(F)cc3)cn2)c1 [Example 1, 3-[5-(4-Fluorophenoxy)pyridin-2-ylamino]-phenol]
- IC50 [1]: 5 µM
- IC50 ([2]; Homo sapiens, SH-SY5Y): 16 µM

SMILES: COc1cc(Nc2ccc(Oc3cccc(N(C)C)c3)cn2)ccc1F [Example 17, [5-(3-Dimethylaminophenoxy)-pyridin-2-yl]-(4-fluoro-3-methoxy-phenyl)amine]
- IC50 [1]: 9 µM
- IC50 ([2]; Homo sapiens, SH-SY5Y): 16 µM

SMILES: COc1cc(N(C)c2ccc(Oc3cccc(N(C)C)c3)cn2)ccc1F [Example 26, [5-(3-Dimethylaminophenoxy)-pyridin-2-yl]-(4-fluoro-3-methoxy-phenyl)methylamine]
- IC50 ([2]; Homo sapiens, SH-SY5Y): 22 µM

SMILES: COc1cc(Nc2ccc(Oc3cccc(N4CCOCC4)c3)cn2)ccc1F [Example 27]
- IC50 [1]: 11 µM
- IC50 ([2]; Homo sapiens, SH-SY5Y): 8 µM

SMILES: Oc1cccc(Nc2ccc(Oc3cccc(N4CCOCC4)c3)cn2)c1 [Example 31]
- IC50 [1]: 15 µM

SMILES: Oc1cccc(Nc2ccc(Nc3cccc(O)c3)nn2)c1 [RS-0406, reference compound]
- IC50 [2]: 40 µM
